Results taken from EPA's ToxValDB 9.5.
Values after ≈ are worked out from the molar mass of the structure shown. Values joined by “and” are separate entries in the source; they are usually repeats but may differ in a detail not shown here. Identical values can stand only once.

What was measured:
Mus musculus = details: for LOAEL: M
Oncorhynchus mykiss = details: acute; for LC50: duration: 96 hours, mortality
Sus scrofa = details: oral, Not specified
Ovis sp. = details: subchronic, oral, diet
Rattus norvegicus = details: for LD50: acute, mortality
Daphnia magna = details: for LC50: mortality
Pontoscolex corethrurus = details: for LC50: acute, mortality
Colinus virginianus = details: for LD50 / LC50: acute, oral; for LC50: diet
Bovidae = details: oral, diet; for LEL: no effects
Anas platyrhynchos = details: oral, mortality
Danio rerio = details: acute; duration: 96 hours; mortality
Gallus gallus = details: for LEL: oral, diet, M/F, no effects
Typhlodromus pyri = experiment: LR50; higher = less toxic; details: acute, mortality
Apis mellifera = details: acute, mortality
Tagia sp. = details: for LC50: acute
Homo sapiens = details: clinical, injection, intravenous
[1] = for NOAEL: subchronic
Lymnaea stagnalis = details: chronic/long-term; duration: 50 days
Plant = details: not reported; seedling emergence
Pleurozium sp. = details: acute; duration: 72 hours; growth
Bibionidae = details: chronic/long-term; duration: 28 days; seedling emergence
[2] = reproduction developmental, body weight

Compound: NC1=N[C@H](O)[C@H]2[C@H]3O[C@]4(O)O[C@@H]([C@@H](O)[C@@]2(N1)[C@@H]4O)[C@]3(O)CO [Tetrodotoxin]
- LEL (Mus musculus; acute, injection, intraperitoneal, no effects): 0.025 mg/kg-day
- NOAEL (Mus musculus; acute, oral, other): 0.075 mg/kg-day

Compound: O=c1[nH]c(=O)[nH]c(=O)[nH]1 [Cyanuric acid]
- LEL (Oncorhynchus mykiss; duration: 3 days, oral, capsule, no effects): 390 mg/kg-day
- LEL (Sus scrofa; acute, duration: 3 days, diet, no effects): 400 mg/kg-day
- NOAEL (Ovis sp.; duration: 77 days, body weight): 600 mg/kg-day
- NOAEL (Rattus norvegicus; chronic, duration: 2 years, oral, drinking water, histopathology: nonneoplastic): 154 mg/kg-day

Compound: CCC(C)c1nccnc1OC (configuration not stated) [3-sec-Butyl-2-methoxypyrazine]
- LC50 (Daphnia magna; acute): 14 mg/L (≈ 84.2 µM)
- LC50 (Pontoscolex corethrurus): 235 mg/kg

Compound: CC1=CC(=O)CC(C)(C)[C@@]1(O)/C=C/C(C)=C\C(=O)O [(+)-(S)-Abscisic acid]
- LD50 (Colinus virginianus; mortality): > 2250 mg/kg-day
- LD50 (Rattus norvegicus; oral): > 5000 mg/kg-day
- NOAEC (Rattus norvegicus; reproduction developmental, no effects): ≥ 1360 mg/kg-day

Compound: CO[C@@H]1[C@@H](OC)[C@H](C)[C@@](O)(CC(=O)O)O[C@H]1[C@H](C)[C@H]1O[C@@]2(CC[C@@](C)([C@H]3CC[C@@](C)([C@@H]4O[C@@H]([C@H]5O[C@](C)(O)[C@H](C)C[C@@H]5C)C[C@@H]4O[C@@H]4C[C@H](OC)[C@@H](OC)[C@H](C)O4)O3)O2)C[C@H](O)[C@H]1C.N [Maduramicin ammonium]
- NOAEL (Canidae; acute, duration: 3 hours, M/F, Beagle, no effects): ≥ 0.1 mg/kg-day
- LEL (Sus scrofa; repeat dose other, diet, mortality): 37.5 mg/kg-day
- LEL (Ovis sp.; gross pathology): ≥ 2.5 mg/kg-day
- NOEL (Rattus norvegicus; chronic, duration: 2 years, oral, diet): 0.16 mg/kg-day
- NOAEL (Rattus norvegicus; chronic, duration: 2 years, oral, diet, M/F, organ weight): 0.12 mg/kg-day
- NOAEL (Rattus norvegicus; reproduction developmental, M/F, body weight): 0.1 mg/kg-day
- LEL (Bovidae; short-term, duration: 28 days): 0.15 mg/kg-day
- LOAEL (Oryctolagus sp.; short-term, duration: 2 weeks, oral, diet, mortality): 0.075 mg/kg-day

Compound: CC[N+](CC)(CC(=O)Nc1c(C)cccc1C)Cc1ccccc1.O=C([O-])c1ccccc1 [Denatonium benzoate]
- NOEC (Daphnia magna; chronic/long-term, duration: 21 days, reproduction): 5 mg/L
- LC50 (Colinus virginianus; mortality): 778 mg/kg-day
- LD50 (Colinus virginianus; mortality): 196 mg/kg
- LC50 (Anas platyrhynchos; short-term, feed): 842 mg/kg-day

Compound: O=C(O)Cn1cncn1 [1,2,4-Triazole-1-acetic acid]
- NOAEL (Rattus norvegicus; [2]): 100 mg/kg-day
- NOAEL (Oryctolagus sp.; [2]): 100 mg/kg-day

Compound: O=S(=O)(F)F [Sulfuryl fluoride]
- LC50 (Mus musculus; acute, inhalation, mortality): 1.67 mg/L (≈ 16.4 µM)
- NOAEL (Rattus norvegicus; chronic, duration: 2 years, histopathology: nonneoplastic): 20 mg/kg-day
- NOEL (Rattus norvegicus; short-term, duration: 2 days, F, Fischer 344): 300 mg/kg-day
- NOAEL (Rattus norvegicus; subchronic, duration: 90 days, inhalation, histopathology: nonneoplastic): 100 mg/kg-day
- LC50 (Danio rerio): 0.89 mg/L (≈ 8.72 µM)

Compound: C[Se]CCC(O)C(=O)O (configuration not stated) [Butanoic acid, 2-hydroxy-4-(methylseleno)-]
- LEL (Gallus gallus; subchronic, duration: 35 days): 5 mg/kg-day
- LEL (Gallus gallus; subchronic, duration: 42 days): 5 mg/kg-day
- LEL (Meleagris sp.; subchronic, duration: 42 days, oral, feed, M/F, But big 6, no effects): 5 mg/kg
- LEL (Sus scrofa; subchronic, duration: 42 days, diet, M/F, no effects): 5 mg/kg-day

Compound: O=C1CCSC1 [3(2H)-Thiophenone, dihydro-]
- LC50 (Pontoscolex corethrurus): 305 mg/kg

Compound: OC[C@H]1OC(O[C@H]2[C@H](O)[C@@H](CO)OC(O[C@H]3[C@H](O)[C@@H](CO)OC(O)[C@@H]3O)[C@@H]2O)[C@H](O)[C@@H](O)[C@@H]1O (some centres not stated) [Laminaran]
- LR50 (Typhlodromus pyri): 115 g/ha
- LD50 (Apis mellifera; dermal): > 100 µg/piece
- LD50 (Apis mellifera; oral, unspecified): > 119 µg/piece
- LD50 (Colinus virginianus; mortality): > 1700 mg/kg-day
- LEL (Colinus virginianus; chronic, mortality): > 170 mg/kg-day
- LD50 (Rattus norvegicus; oral): > 2000 mg/kg-day
- NOAEL (Rattus norvegicus; subchronic, duration: 90 days, oral, no effects): 1000 mg/kg-day
- LC50 (Danio rerio): > 71.3 mg/L
- NOEC (Pontoscolex corethrurus; chronic/long-term, growth): 262 mg/kg

Compound: [Ca+2].[S-]SSS[S-] [Calcium polysulfide]
- LR50 (Typhlodromus pyri; duration: 7 days): 113 g/ha
- LC50 (Tagia sp.; mortality): > 1000 mg/kg
- LC50 (Oncorhynchus mykiss): 2.67 mg/L
- LD50 (Apis mellifera; duration: 48 hours, oral, unspecified): > 69.8 µg/piece
- LD50 (Rattus norvegicus; oral): 1340 mg/kg-day
- NOAEL (Rattus norvegicus; subchronic, duration: 90 days, oral, clinical chemistry): 150 mg/kg-day

Compound: O=S(=O)([O-])c1ccc(N=Nc2cc(S(=O)(=O)[O-])c3ccccc3c2O)c2ccccc12.[Na+].[Na+] [Azorubine]
- NOAEL (Mus musculus; chronic, hematological): 375 mg/kg-day
- NOAEL (Rattus norvegicus; chronic, M/F, body weight): 400 mg/kg-day

Compound: C/C=C/c1ccc(O)c(OC)c1 [Isoeugenol]
- LOAEL (Mus musculus; chronic, duration: 2 years, histopathology: neoplastic): 75 mg/kg-day
- NOEC (Daphnia magna; acute): 0.4 mg/L

Compound: ClC1=C(Cl)C2(Cl)C3C(Cl)C=CC3C1(Cl)C2(Cl)Cl (configuration not stated) [Heptachlor]
- LOAEL (Gallus gallus; repeat dose other, reproduction): 0.01 mg/kg-day
- LEL (Sus scrofa; subchronic, duration: 78 days, histopathology: nonneoplastic): 2 mg/kg-day
- NOAEL (Bovidae; subchronic, F): 6 mg/kg-day

Compound: CC(=O)OC[C@]12CCC(C)=C[C@H]1O[C@@H]1[C@H](O)[C@@H](OC(C)=O)[C@@]2(C)[C@]12CO2 [Diacetoxyscirpenol]
- LOAEL (Canidae; acute, injection, intravenous, Beagle, hematological): 0.031 mg/kg-day
- LOAEL (Gallus gallus; subchronic, duration: 35 days, M, Chicken, histopathology: neoplastic): 0.01 mg/kg-day
- NOAEL (Homo sapiens; hematological): 0.065 mg/kg-day
- NOAEL (Homo sapiens; other): 0.032 mg/kg-day
- LOAEL (Sus scrofa; short-term, gavage, histopathology: neoplastic): 0.08 mg/kg-day

Compound: C=C(/C=C\C[C@@H](O)[C@@H](O)[C@H](O)C/C=C/C=C\[C@@H](O)C[C@@H]1O[C@H](C[C@@H](O)[C@H](O)C[C@H]2O[C@H]([C@H](O)[C@H](O)CC[C@H](O)/C=C/[C@H](C)[C@@H](O)C[C@]3(O)O[C@H](C[C@@H](O)CCCCCCC[C@@]45C[C@@H](C)C[C@@](C)(O4)[C@@H](C[C@@H](C)CCCCC[C@@H](O)[C@H](O)[C@H](O)[C@@H](O)[C@H](O)[C@H]4O[C@H](C[C@H](O)[C@H](O)/C(C)=C/[C@H](O)C[C@@H](C)[C@H](O)C(=O)N/C=C/C(=O)NCCCO)[C@H](O)[C@@H](O)[C@@H]4O)O5)[C@H](O)[C@@H](O)[C@H]3O)C[C@@H](O)[C@@H]2O)[C@@H](O)[C@H](O)[C@H]1O)CC[C@H](O)[C@@H](O)[C@H](O)[C@H](C)C[C@H]1O[C@H](/C=C\[C@@H](O)[C@H](O)C[C@@H]2C[C@@H]3C[C@H](O2)[C@@H](CC[C@H]2O[C@H](CN)C[C@H]2O)O3)[C@@H](O)[C@H](O)[C@H]1O [Palytoxin]
- LOAEL (Mus musculus; acute, oral, gavage, ICR, clinical signs): 0.2 mg/kg-day

Compound: CC12CCC(CC1)C(C)(C)O2 [1,8-Cineol]
- NOAEL (Mus musculus; short-term, duration: 28 days, oral, capsule, M/F, other): 562 mg/kg-day

Compound: CCCCCCC(C=O)=Cc1ccccc1 [2-(Phenylmethylene)octanal]
- LC50 ([1]; acute, mortality): 0.2 mg/L (≈ 0.925 µM)
- NOAEL (Rattus norvegicus; chronic, duration: 14 weeks, oral, diet, M/F, organ weight): 30 mg/kg-day

Compound: Cc1oc2ccccc2c1C [Benzofuran, 2,3-dimethyl-]
- NOAEL ([1]; duration: 90 days): 0.6 mg/kg-day
- NOAEL (Rattus norvegicus; subchronic, duration: 90 days, oral): 0.6 mg/kg-day

Compound: O=[N+]([O-])[O-].O=[N+]([O-])[O-].O=[N+]([O-])[O-].[Al+3] [Aluminum nitrate]
- NOEC (Lymnaea stagnalis): 0.1 mg/L

Compound: CN1CCCC1=O [N-Methyl-2-pyrrolidone]
- NOAEL (Mus musculus; chronic, M/F, B6C3F1, organ weight): 90 mg/kg-day

Compound: C#CCOc1ccc(CCNC(=O)C(OCC#C)c2ccc(Cl)cc2)cc1OC (configuration not stated) [Mandipropamid]
- NOAEL (Canidae; subchronic, duration: 90 days, oral, Dog Other, body weight): 25 mg/kg-day
- LC50 (Colinus virginianus; mortality): > 2140 mg/kg-day
- NOEL (Colinus virginianus; reproduction developmental): 83.6 mg/kg-day
- LD50 (Anas platyrhynchos; acute, unspecified): > 1000 mg/kg-day
- LD50 (Rattus norvegicus; oral): > 5000 mg/kg-day
- NOEL (Rattus norvegicus; chronic, body weight): 20 mg/kg-day
- NOAEL (Rattus norvegicus; chronic, duration: 2 years, body weight): 15.2 mg/kg-day

Compound: CC(C)[C@H]1OC(=O)[C@H](Cc2ccccc2)N(C)C(=O)[C@@H](C(C)C)OC(=O)[C@H](Cc2ccccc2)N(C)C(=O)[C@@H](C(C)C)OC(=O)[C@H](Cc2ccccc2)N(C)C1=O [Beauvericin]
- NOAEL (Gallus gallus; repeat dose other): 1.22 mg/kg-day and 0.536 mg/kg-day
- NOAEL (Meleagris sp.; not reported): 136 µg/kg-day

Compound: CSSC [Methyl disulfide]
- LD50 (Apis mellifera; dermal): > 100 µg/piece
- LD50 (Colinus virginianus; mortality): 342 mg/kg
- LD50 (Rattus norvegicus; oral): > 125 mg/kg
- NOAEC (Rattus norvegicus; [2]): 5 ppm
- NOAEC (Rattus norvegicus; reproduction developmental, inhalation, no effects): 308 mg/m3
- NOAEC (Rattus norvegicus; subchronic, duration: 90 days, inhalation, body weight): 77 mg/m3

Compound: CC(=O)OC(C)c1ccccc1 (racemic) [(+/-)-alpha-Methylbenzyl acetate]
- LC50 (Pontoscolex corethrurus): 1480 mg/kg

Compound: [Fe+2] [Fe +2 ion]
- NOAEL (Mus musculus; developmental, development): 380 mg/kg-day
- NOAEL (Rattus norvegicus; developmental, development): 380 mg/kg-day

Compound: CCOCCC(OCC)OCC [1,1,3-Triethoxypropane]
- LOAEL ([1]; repeat dose other): 9.5 mg/kg-day
- LOAEL (Rattus norvegicus; subchronic, M, hematological): 69 mg/kg-day

Compound: O=C(Nc1ccc([N+](=O)[O-])cc1)Nc1ccc([N+](=O)[O-])cc1 [4,4'-Dinitrodiphenylurea]
- NOEC (Plant): 2.9 mg/kg
- LC50 (Tagia sp.; duration: 14 days, no effects): > 1000 mg/kg
- NOEC (Pleurozium sp.): 0.042 µg/L

Compound: C[C@H]1O[C@H](O[C@H]2[C@H](O)[C@@H](O)[C@@H](O[C@@H]([C@H](O)[C@@H](O)C=O)[C@H](O)CO)O[C@@H]2CO)[C@H](O)[C@@H](O)[C@@H]1N[C@H]1C=C(CO)[C@@H](O)[C@H](O)[C@H]1O [Acarbose]
- LEL (Bovidae; subchronic, duration: 56 days, F): 350 mg/kg-day

Compound: CCCc1ncc(C[n+]2ccccc2C)c(N)n1.Cl.[Cl-] [Amprolium hydrochloride]
- NOEC (Tagia sp.; reproductive, reproduction): 100 mg/kg
- LEL (Gallus gallus; subchronic, duration: 43 days, Chicken): 625 mg/kg-day
- NOEC (Bibionidae): 101 mg/kg

Compound: CC(=O)CCc1ccc(O)cc1 [4-(4-Hydroxyphenyl)butan-2-one]
- NOAEL ([1]; duration: 13 weeks): 280 mg/kg-day
- LC50 (Daphnia magna; acute): 16.9 mg/L (≈ 103 µM)
- LC50 (Pontoscolex corethrurus): 248 mg/kg

Compound: CC(C)=CCC/C(C)=C/CO [(2E)-3,7-Dimethyl-2,6-octadien-1-ol]
- LC50 (Oncorhynchus mykiss): 11.6 mg/L (≈ 75.2 µM)
- LD50 (Rattus norvegicus; oral): 3600 mg/kg-day
